Reference: patent US10829491B2, “Pyrimido[5,4-B]indolizine or pyrimido[5,4-B]pyrrolizine compound, preparation method and use thereof” (SHANGHAI INSTITUTE OF MATERIA MEDICA, CHINESE ACADEMY OF …, priority 2016, dated 2020)
Read-outs that look alike come from different tables or passages of the source.

Tests used:
[1] = biological target: BTK tyrosine kinase protein (Homo sapiens (Human), UniProt Q06187); experiment: Inhibitory activity against Bruton kinase (BTK) at molecular level (ELISA); assay type: biochemical
Sequence of BTK tyrosine kinase protein (Q06187 whole entry): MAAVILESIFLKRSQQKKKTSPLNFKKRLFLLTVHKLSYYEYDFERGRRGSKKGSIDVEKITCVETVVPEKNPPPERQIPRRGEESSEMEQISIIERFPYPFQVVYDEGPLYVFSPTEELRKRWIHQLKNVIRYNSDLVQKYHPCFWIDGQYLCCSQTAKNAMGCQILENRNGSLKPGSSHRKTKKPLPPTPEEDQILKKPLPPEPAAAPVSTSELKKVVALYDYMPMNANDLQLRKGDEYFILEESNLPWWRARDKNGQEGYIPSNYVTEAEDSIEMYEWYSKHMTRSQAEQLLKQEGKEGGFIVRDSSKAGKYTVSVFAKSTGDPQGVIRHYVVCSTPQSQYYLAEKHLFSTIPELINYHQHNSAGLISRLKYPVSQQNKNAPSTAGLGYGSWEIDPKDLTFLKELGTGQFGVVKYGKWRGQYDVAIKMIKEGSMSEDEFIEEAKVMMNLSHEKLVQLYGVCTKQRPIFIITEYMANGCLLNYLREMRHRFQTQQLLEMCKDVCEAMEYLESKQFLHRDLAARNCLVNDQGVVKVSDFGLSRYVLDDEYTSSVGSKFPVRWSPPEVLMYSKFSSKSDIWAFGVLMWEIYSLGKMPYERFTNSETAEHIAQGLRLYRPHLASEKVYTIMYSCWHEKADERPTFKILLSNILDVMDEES
Method: Poly(Glu, Tyr) 4:1 as a substrate for enzyme catalyzed reaction was diluted with potassium-free PBS (10 mM sodium phosphate buffer, 150 mM NaCl, pH 7.2-7.4) to […] to coat a ELISA plate. The plate was cultured at 37° C. for 12-16 h, washed with 200 μL/well of T-PBS (PBS containing 0.1% of Tween-20) three times, and dried in an oven at 37° C. for 1-2 h. Into the above ELISA plate coated with the substrate, an ATP solution diluted with a reaction buffer (50 mM HEPES, pH 7.4, 50 mM MgCl2, 5 mM MnCl2, 0.2 mM Na3VO4, 1 mM DTT) was first added at 50 μL/well (concentration of 10 μM). Then, a test compound diluted by 1% DMSO to a suitable concentration was added (10 μL/well), and negative control well and positive compound control well were provided separately. Finally, the reaction was initiated by adding BTK tyrosine kinase protein diluted in 40 μL of reaction buffer.
The above reaction system was placed on a shaker (100 rpm) at 37° C. for 1 h, then washed with T-PBS for three times, primary antibody PY99 (Cell Signaling Technology) was added at 100 μL/well, and the reaction was conducted on the shaker at 37° C. for 0.5 h. After the plate was washed with T-PBS, secondary antibody horseradish peroxidase-labeled goat anti-mouse IgG was added at 100 μL/well, and the reaction was conducted on the shaker at 37° C. for 0.5 h. After the plate was washed with T-PBS, 2 mg/mL of OPD developing solution was added at 100 μL/well, and the reaction was conducted in the dark at 25° C. for 1 to 10 minutes. Then the reaction was quenched by adding 2 M H2SO4 at 50 μL/well. The data were read on a wavelength-tunable microplate reader ELISA SPECTRA MAX 190 at a wavelength of 490 nm.
IC50 was calculated by fitting the inhibition curve using a four-parameter method.

[2] = system: human B lymphoma Ramos cells; experiment: In vitro proliferation inhibition of Ramos cells (MTT); assay type: cell-based; settings: for IC50: Homo sapiens, Ramos cells, 48 hours, MTT
Method: (§1) Cells were seeded at 10000-15000/well into a 96-well culture plate, different concentrations of a test compound were added to each well (3 replicate-wells for each concentration), and blank control, positive compound control and negative control were provided. 48 hours after the administration of the drugs, […] of MTT (5 mg/ml) was added, and the plate was incubated at 37° C. for 4 h, and then […] of a triad solution (10% SDS, 5% isobutanol, 0.01 M HCl) was added. The resultant was cultured at 37° C. overnight, and the OD value was measured at a wavelength of 570 nm using a wavelength-tunable microplate reader ELISA SPECTRA MAX 190. […] The IC50 value was calculated by fitting the inhibition curve using a four-parameter method. The experiment was repeated 3 times independently.

[3] = system: human diffuse large B lymphoma TMD8 cells; experiment: In vitro proliferation inhibition of TMD8 cells (MTT); assay type: cell-based; settings: 48 hours, read-out: IC50 for the inhibition TMD of cells
Method: as §1, with “added.” for “added. The resultant was cultured at 37° C. overnight, and the OD value was measured at a wavelength of 570 nm using a wavelength-tunable microplate reader ELISA SPECTRA MAX 190.”

[4] = BTK kinase ELISA, ATP 10 μM, read-out: IC50

| SMILES | IC50 [1, 4] | IC50 [2] | further results |
| --- | --- | --- | --- |
| C=CC(=O)NCC(=O)N[C@@H]1CCc2c(-c3ccc(Oc4ccccc4)cc3)c3c(N)ncnc3n2C1 [Compound S6, (R)—N-(2-((4-amino-5-(4-phenoxyphenyl)-6,7,8,9-tetrahydropyrimido[5,4-b]indolizine-8-yl)amino)-2-oxoethyl)acrylamide] | 1 to 10 nM | 5500 ± 1000 nM |  |
| CC#CC(=O)N[C@@H]1CCc2c(-c3ccc(C(=O)Nc4ccccn4)cc3)c3c(N)ncnc3n2C1 [Compound S14, (R)-4-(4-amino-8-(but-2-ynylamide)-6,7,8,9-tetrahydropyrimido[5,4-b]indolizine-5-yl)-N-(pyridin-2-yl)benzamide] | 1 to 10 nM |  |  |
| C=C1c2c(-c3ccc(Oc4ccccc4)cc3)c3c(N)ncnc3n2C[C@@H]1NC(=O)C#CC [Compound S19, (R)—N-(4-amino-6-methylidene-5-(4-phenoxyphenyl)-7,8-dihydro-6H-pyrimido[5,4-b]pyrrolizin-7-yl)but-2-ynylamide] |  | 16900 ± 7900 nM | IC50 [1]: < 1 nM |
| C=CC(=O)N[C@@H]1CCc2c(-c3ccc(C(=O)N[C@@H](COC)c4ccccc4)cc3)c3c(N)ncnc3n2C1 [Compound S17, 4-((R)-8-acrylamido-4-amino-6,7,8,9-tetrahydropyrimido[5,4-b]indolizine-5-yl)-N—((R)-2-methoxy-1-phenylethyl)benzamide] | 1 to 10 nM |  |  |
| C=CC(=O)NC(C)C(=O)N[C@@H]1CCc2c(-c3ccc(Oc4ccccc4)cc3)c3c(N)ncnc3n2C1 (stereo partly drawn) [Compound S7, N-(1-(((R)-4-amino-5-(4-phenoxyphenyl)-6,7,8,9-tetrahydropyrimido[5,4-b]indolizine-8-yl)imino)-1-oxoprop-2-yl) acrylamide] | 10 to 100 nM |  |  |
| C=CC(=O)N[C@@H]1CCc2c(-c3ccc(C(=O)Nc4ccccn4)cc3)c3c(N)ncnc3n2C1 [Compound S13, (R)-4-(8-acrylamido-4-amino-6,7,8,9-tetrahydropyrimido[5,4-b]indolizine-5-yl)-N-(pyridin-2-yl)benzamide] | 1 to 10 nM |  |  |
| C=CC(=O)N[C@H]1Cn2c(c(-c3ccc(Oc4ccccc4)cc3)c3c(N)ncnc32)C1C (stereo partly drawn) [Compound S21, N-((7R)-4-amino-6-methyl-5-(4-phenoxyphenyl)-7,8-dihydro-6H-pyrimido[5,4-b]pyrrolizin-7-yl)acrylamide] | 1 to 10 nM |  |  |
| C=CS(=O)(=O)N[C@@H]1CCc2c(-c3ccc(Oc4ccccc4)cc3)c3c(N)ncnc3n2C1 [Compound S9, (R)—N-(4-amino-5-(4-phenoxyphenyl)-6,7,8,9-tetrahydropyrimido[5,4-b]indolizine-8-yl)vinylsulfamide] | 10 to 100 nM |  |  |
| CN(C)C/C=C/C(=O)N[C@@H]1CCc2c(-c3ccc(Oc4ccccc4)cc3)c3c(N)ncnc3n2C1 [Compound S5, (R,E)-N-(4-amino-5-(4-phenoxyphenyl)-6,7,8,9-tetrahydropyrimido[5,4-b]indolizine-8-yl)-4-(dimethylamino)but-2-enamide] | < 1 nM | 6600 ± 2100 nM |  |
| C=CC(=O)N[C@@H]1CCc2c(-c3ccc(Oc4ccc(F)cc4)cc3)c3c(N)ncnc3n2C1 [Compound S11, (R)—N-(4-amino-5-(4-(4-fluorophenoxy)phenyl)-6,7,8,9-tetrahydropyrimido[5,4-b]indolizine-8-yl)acrylamide] | < 1 nM |  |  |
| CC(C)(C)C=C(C#N)C(=O)N[C@@H]1CCc2c(-c3ccc(Oc4ccccc4)cc3)c3c(N)ncnc3n2C1 [Compound S4, (R)—N-(4-amino-5-(4-phenoxyphenyl)-6,7,8,9-tetrahydropyrimido[5,4-b]indolizine-8-yl)-2-cyano-4,4-dimethylpent-2-enamide] | > 100 nM |  |  |
| CC#CC(=O)N[C@@H]1CCc2c(-c3ccc(Oc4ccccc4)cc3)c3c(N)ncnc3n2C1 [Compound S10, (R)—N-(4-amino-5-(4-phenoxyphenyl)-6,7,8,9-tetrahydropyrimido[5,4-b]indolizine-8-yl)But-2-ynylamide] |  | 8720 ± 8580 nM | IC50 [1]: 1 to 10 nM; IC50 [3]: 30 nM |
| C=CC(=O)NC1CCc2c(-c3ccc(Oc4ccccc4)cc3)c3c(N)ncnc3n2C1 (racemic) [Compound S3, N-(4-amino-5-(4-phenoxyphenyl)-6,7,8,9-tetrahydropyrimido[5,4-b]indolizine-8-yl)acrylamide] |  | 11400 ± 800 nM |  |
| C=CC(=O)N[C@@H]1CCc2c(-c3ccc(C(=O)Nc4ccc(F)cn4)cc3)c3c(N)ncnc3n2C1 [Compound S15, (R)-4-(8-acrylamido-4-amino-6,7,8,9-tetrahydropyrimido[5,4-b]indolizine-5-yl)-N-(5-fluoropyridin-2-yl)benzamide] | 1 to 10 nM |  |  |
| C=CC(=O)N[C@@H]1CCc2c(-c3ccc(C(=O)Nc4cc(C(F)(F)F)ccn4)cc3)c3c(N)ncnc3n2C1 [Compound S16, (R)-4-(8-acrylamido-4-amino-6,7,8,9-tetrahydropyrimido[5,4-b]indolizine-5-yl)-N-(4-(trifluoromethyl)pyridin-2-yl)benzamide] | 1 to 10 nM |  |  |
| C=CC(=O)N1CCC[C@@H](n2nc(-c3ccc(Oc4ccccc4)cc3)c3c(N)ncnc32)C1 [Ibrutinib, reference compound] |  | ~8530 nM | IC50 [3]: 4.5 nM |
| C=CC(=O)N[C@H]1Cn2c(c(-c3ccc(C(=O)Nc4ccccn4)cc3)c3c(N)ncnc32)C1C (stereo partly drawn) [Compound S22, 4-((7R)-7-acrylamido-4-amino-6-methyl-7,8-dihydro-6H-pyrimido[5,4-b]pyrrolizin-5-yl)-N-(pyridin-2-yl)benzamide] | 1 to 10 nM |  |  |
| C=CC(=O)N[C@H]1Cn2c(c(-c3ccc(Oc4ccccc4)cc3)c3c(N)ncnc32)C1=C [Compound S18, (R)—N-(4-amino-6-methylidene-5-(4-phenoxyphenyl)-7,8-dihydro-6H-pyrimido[5,4-b]pyrrolizin-7-yl)acrylamide] | 1 to 10 nM |  |  |
| C=CC(=O)N[C@@H]1CCc2c(-c3ccc(Oc4ccccc4)cc3)c3c(N)ncnc3n2C1 [Compound S1, (R)—N-(4-amino-5-(4-phenoxyphenyl)-6,7,8,9-tetrahydropyrimido[5,4-b]indolizine-8-yl)acrylamide] |  | 94700 ± 45100 nM | cell activity against human B lymphoma Ramos cells ([2]; qualitative statement): low cell activity; IC50 [3]: 5.8 nM |
| C=CC(=O)N[C@H]1Cn2c(c(-c3ccc(C(=O)Nc4ccccn4)cc3)c3c(N)ncnc32)C1=C [Compound S20, (R)-4-(7-acrylamido-4-amino-6-methylidene-7,8-dihydro-6H-pyrimido[5,4-b]pyrrolizin-5-yl)-N-(pyridin-2-yl)benzamide] | 1 to 10 nM |  |  |
| C=CC(=O)N[C@@H]1CCc2c(-c3ccc(Oc4ccc(C(F)(F)F)cc4)cc3)c3c(N)ncnc3n2C1 [Compound S12, (R)—N-(4-amino-5-(4-(4-(trifluoromethyl)phenoxy)phenyl)-6,7,8,9-tetrahydropyrimido[5,4-b]indolizine-8-yl)acrylamide] | < 1 nM |  |  |
| C=CC(=O)NC1(C(=O)N[C@@H]2CCc3c(-c4ccc(Oc5ccccc5)cc4)c4c(N)ncnc4n3C2)CC1 [Compound S8, (R)-1-acrylamido-N-(4-amino-5-(4-phenoxyphenyl)-6,7,8,9-tetrahydropyrimido[5,4-b]indolizine-8-yl)cyclopropanecarboxamide] | > 100 nM |  |  |
